Data as given in the supplement of paper PMC6470124.

Assays:
[1] = absolute recovery over vacuum-assisted evaporative concentration; higher = better recovery; details: enrichment method: VEC
Outline: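 Water samples (influent 6 mL, effluent 15 mL, surface and nanopure water 60 mL) were spiked with standards before concentration, after concentration or not at all, at 200 ng/L (nanopure/surface) or 1000 ng/L (wastewater), with class- and compound-specific adjustments. They were evaporated at 55 °C and 20 mbar to about 0.3 mL, brought to 0.4 mL and centrifuged. Internal standards were added afterwards and samples were analysed by LC-HRMS/MS. Absolute recovery was (response ratio pre − unspiked)/(post − unspiked) × 100, using averages of ≥ 2 replicates.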

[2] = absolute recovery over mixed-bed multilayer solid-phase extraction; higher = better recovery; details: enrichment method: SPE
Outline: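 Absolute recovery was calculated by comparing background-corrected response ratios of samples spiked before extraction with those spiked after it, averaged over at least two replicates. Wastewater (100–250 mL, adjusted to pH 6.5 and glass-fibre filtered) or 1000 mL of unfiltered nanopure water was passed through a three-layer mixed-bed cartridge and eluted with basic and then acidic ethyl acetate/methanol. Standards were added before extraction, after extraction, or not at all, at 200 ng/L in water or 1000 ng/L in wastewater, with exceptions for some classes. Internal standards were added afterwards, and samples were analysed by liquid chromatography with high-resolution tandem mass spectrometry in both ionisation modes.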

[3] = LC retention time (Atlantis T3, 5-95% MeOH gradient, 0.1% formic acid); higher = more retained / less polar
Outline: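 Retention times were recorded for reference standards on a polar reversed-phase C18 column. The standards were of purity ≥ 95%, and the Atlantis T3 column (3 × 150 mm, 3 μm) was run at 0.3 mL/min with a gradient from 5 to 95% methanol over 17.5 min, both water and methanol containing 0.1% formic acid. Detection used high-resolution tandem mass spectrometry on a QExactive Plus, with positive and negative electrospray in separate runs, and peaks were integrated in TraceFinder (5 ppm tolerance, at least three points per peak) before being checked by hand.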

Compound | absolute recovery ([1]; wastewater effluent) [%] | absolute recovery ([2]; nanopure water) [%] | absolute recovery ([2]; surface water) [%] | absolute recovery ([2]; wastewater effluent) [%] | LC retention time [3] [min] | absolute recovery ([1]; wastewater influent) [%] | absolute recovery ([2]; wastewater influent) [%]
COc1cccc(C2(O)CCCCC2C[NH+](C)C)c1 (stereo not given) [Tramadol] | 82.8 | 94.2 | 85.7 | 92 | 12.2 | 144 | 91.6
Cn1ncc(N)c(Cl)c1=O [Chloridazon-methyl-desphenyl] | 99.2 | 91.5 | 102 | 97 | 10.2 | 104 | 101
CCCCCOC(=O)[N-]c1nc(=O)n(C2OC(C)C(O)C2O)cc1F (stereo not given) [Capecitabin] | 108 | 93.3 | 93.1 | 90.8 | 17.7 | 101 | 96.3
CSC1=NC(C)(c2ccccc2)C(=O)N1Nc1ccccc1 (stereo not given) [Fenamidone] | 106 | 100 | 107 | 101 | 19.2 | 98.7 | 91.6
C#CCOc1ccc(CCNC(=O)C(OCC#C)c2ccc(Cl)cc2)cc1OC (stereo not given) [Mandipropamid] | 110 | 105 | 117 | 110 | 19.2 | 112 | 93.5
CCOc1cc(Oc2ccc(C(F)(F)F)cc2Cl)ccc1[N+](=O)[O-] [Oxyfluorfen] | 87.1 | 93.8 | 83.9 | 82.2 | 21 | 92.7 | 108
CCOCN(C(=O)CCl)c1c(C)cccc1CC [Acetochlor B] | 83.4 | 94 | 93.3 | 91.1 | 20.4 | 76.8 | 91.6
O=C1Nc2ccc(Cl)cc2C(c2ccccc2Cl)=NC1O (stereo not given) [Lorazepam] | 108 | 104 | 94.3 | 97.3 | 18.3 | 104 | 87.4
CCCCC(C#N)(Cn1cncn1)c1ccc(Cl)cc1 (stereo not given) [Myclobutanil] | 109 | 102 | 91.9 | 94 | 19.8 | 101 | 85.1
[NH3+]C12CC3CC(CC(C3)C1)C2 [Amantadine] | 104 | 90.7 | 79.3 | 86.2 | 12.1 | 114 | 87.2
O=C(OC1CC2CCC(C1)[N+]21CCCC1)C(O)(c1ccccc1)c1ccccc1 (stereo not given) [Trospium] | 99.2 | 85.5 | 91.7 | 91.1 | 13.7 | 103 | 87.3
Nc1cnn(-c2ccccc2)c(=O)c1Cl [Chloridazon] | 104 | 97.1 | 98.1 | – | 14.7 | 104 | 96.1
CC(C)Oc1cccc(NC(=O)c2ccccc2C(F)(F)F)c1 [Flutolanil] | 94 | 104 | 104 | 95.7 | 19.5 | 103 | 98
CC=C1[NH+](C)C(C)CC1(c1ccccc1)c1ccccc1 (stereo not given) [EDDP (=2-Ethylidene-1-5-dimethyl-3-3-diphenylpyrrolidin)] | 95 | 33.8 | 65 | 60.2 | 14.4 | 82.3 | 75.8
CC1(C)CC1C(=O)NC(=CCCCCSCC([NH3+])C(=O)[O-])C(=O)[O-] (stereo not given) [Cilastatin] | 103 | 47.7 | 13.1 | 19.5 | 13.6 | 80.5 | 37

Second part, the compound after the results:

absolute recovery ([1]; wastewater effluent) [%] | absolute recovery ([2]; nanopure water) [%] | absolute recovery ([2]; surface water) [%] | absolute recovery ([2]; wastewater effluent) [%] | LC retention time [3] [min] | absolute recovery ([1]; wastewater influent) [%] | absolute recovery ([2]; wastewater influent) [%] | Compound
56.2 | 82.7 | 66.5 | 53.5 | 22.2 | – | – | C=CCC1C=C(C)CC(C)CC(OC)C2OC(O)(C(=O)C(=O)N3CCCCC3C(=O)OC(C(C)=CC3CCC(O)C(OC)C3)C(C)C(O)CC1=O)C(C)CC2OC (stereo not given) [FK-506 (=Tacrolimus)]
108 | 93.1 | 94.4 | 91.1 | 19.4 | 96.6 | 96.4 | CC(C)N(C(=O)CS(=O)(=O)[O-])c1ccccc1 [Propachlor-ESA]
103 | 85.4 | 110 | 93.4 | 16.9 | 110 | 58.3 | CCCCCCCCCC[N+](C)(C)[O-] [NN-Dimethyldicylamin-N-oxid]
105 | 98.7 | 96.1 | 94 | 12.2 | 101 | 90 | CC(=O)Nc1ccc(S(=O)(=O)[N-]c2nccs2)cc1 [N4-Acetyl-Sulfathiazol]
85.7 | 80.1 | 89.2 | 91.8 | 12.8 | 89.8 | 103 | COc1ccc2c(c1OC)C(=O)OC2C1c2c(cc3c(c2OC)OCO3)CC[NH+]1C (stereo not given) [Noscapin]
84.3 | 98 | 107 | 96.9 | 21.1 | 87.1 | 95 | CCOC(=O)C1=NN(c2ccc(Cl)cc2Cl)C(C)(C(=O)OCC)C1 (stereo not given) [Mefenpyr-diethyl]
108 | 86.9 | 91 | 93.2 | 13.1 | 97.1 | 93.2 | CC(=O)Nc1ccc(S(=O)(=O)[N-]c2nc(C)cc(C)n2)cc1 [N4-Acetyl-Sulfamethazin]
97.7 | 88.2 | 97.5 | 95.8 | 17.5 | 104 | 96.2 | CC(C)(C)Nc1nc(N)nc(Cl)n1 [Terbutylazin-desethyl]
87.3 | 73.9 | 78.4 | 76.3 | 22.3 | 76.6 | 92.2 | CCCC(NOCC)=C1C(=O)CC(C2CCCSC2)CC1=O (stereo not given) [Cycloxydim]
109 | 73.5 | 67.8 | 66.5 | 8.92 | 108 | 52.4 | CN(C(=O)CO)c1c(I)c(C(=O)NCC(O)CO)c(I)c(C(=O)NCC(O)CO)c1I (stereo not given) [Iomeprol]
104 | 95.1 | 92 | 90.3 | 14.9 | 98.4 | 90 | COc1cc([N-]S(=O)(=O)c2ccc(N)cc2)nc(OC)n1 [Sulfadimethoxin]
104 | 95.8 | – | 29 | 14.3 | – | – | O=S(=O)([O-])NC1CCCCC1 [Cyclamat]
101 | 80.1 | 80.6 | 77.1 | 8.45 | 101 | 93.3 | CC[NH+]1CCCC1CNC(=O)c1cc(S(N)(=O)=O)ccc1OC (stereo not given) [Sulpirid]
